From patent US9809584B1, “Sulfur-containing oxazine compound and synthesis method thereof” (National Tsing Hua University, priority 2016, dated 2017)

Key:
[1] = test system: staphylococcus ATTC6341(Sa); assay: Antibacterial activity, zone of inhibition, penicillin sensitive Sa strain; format: cell-based
Procedure: (§1) Next, the antibacterial activity of the prepared sulfur-containing BPA-FBz compounds is evaluated using two strains of staphylococcus ATTC6341(Sa) and ATTC11632(Sr), and the results are shown in Table 2. In particular, the Sa strain and the Sr strain have different sensitivities to antibiotics. The Sa strain is penicillin sensitive, and the Sr strain is penicillin resistant, and ampicillin is used as positive control. It can be known from Table 2 that, none of BPA-FBz and sulfur-containing BPA-FBz compounds having low sulfur content (i.e., compounds 1 and 2) has antibacterial activity.

[2] = test system: staphylococcus ATTC11632(Sr); assay: Antibacterial activity, zone of inhibition, penicillin resistant Sr strain; format: cell-based
Procedure: as §1

[3] = dash = no antibacterial activity

CC1(C)S[C@@H]2[C@H](NC(=O)[C@H](N)c3ccccc3)C(=O)N2[C@H]1C(=O)O [Ampicillin, ampicillin]
Zone of inhibition [1, 3]: 34.0 mm
Zone of inhibition [2, 3]: 9.0 mm

CC(C)(c1ccc2c(c1)CN(Cc1ccco1)CO2)c1ccc2c(c1)CN(Cc1ccco1)CO2 [BPA-FBz, bis(3-furfuryl-3,4-dihydro-2H-1,3-benzoxazinyl)isopropane]
antibacterial activity (in words) [1]: none
antibacterial activity (in words) [2]: none
